From ChEMBL document CHEMBL1909046, “DrugMatrix in vitro pharmacology data” come the findings set out here.

For data set [1], the target named is Mitogen-activated protein kinase 14 (Homo sapiens, UniProt Q16539). More on the design: species or system Escherichia coli.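 Further: inhibition of p38alpha enzyme activity in a biochemical kinase assay, with myelin basic protein serving as substrate; in other assays of this panel Not Active means under 50% inhibition at 10 µM.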
Data set [2] concerns the target T1, Amine oxidase [flavin-containing] A (Homo sapiens, UniProt P21397).
T1 sequence (P21397 whole entry): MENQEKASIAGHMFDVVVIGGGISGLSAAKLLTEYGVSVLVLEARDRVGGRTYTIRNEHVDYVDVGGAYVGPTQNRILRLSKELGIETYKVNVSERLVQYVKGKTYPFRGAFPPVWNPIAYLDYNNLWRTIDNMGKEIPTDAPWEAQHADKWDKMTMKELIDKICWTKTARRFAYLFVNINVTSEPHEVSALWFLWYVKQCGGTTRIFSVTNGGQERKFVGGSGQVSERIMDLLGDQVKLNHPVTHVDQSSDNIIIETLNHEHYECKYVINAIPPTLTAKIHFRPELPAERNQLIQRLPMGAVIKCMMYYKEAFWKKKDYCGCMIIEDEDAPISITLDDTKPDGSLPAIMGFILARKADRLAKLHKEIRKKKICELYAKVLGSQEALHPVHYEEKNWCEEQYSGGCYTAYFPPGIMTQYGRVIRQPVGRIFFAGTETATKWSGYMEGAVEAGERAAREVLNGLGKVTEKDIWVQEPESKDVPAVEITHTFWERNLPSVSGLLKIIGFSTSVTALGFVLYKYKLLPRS
The data set is described as follows: DRUGMATRIX: Monoamine Oxidase MAO-A enzyme inhibition (substrate: Kynuramine). The following applies: Not Active = under 50% inhibition at 10 µM. More on the design: species or system BTI-TN-5B1-4.

Another data set concerns the target Nitric oxide synthase 1 (Rattus norvegicus, UniProt P29476). The data set is classed as tissue-based, Cerebellum. Further: in other assays of this panel Not Active means under 50% inhibition at 10 µM.
In a further data set the target is T2, Thromboxane-A synthase (Homo sapiens, UniProt P24557).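 Further: enzyme inhibition assay with PGH2 supplied as substrate; in other assays of this panel Not Active means under 50% inhibition at 10 µM.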
T2 sequence (P24557 whole entry): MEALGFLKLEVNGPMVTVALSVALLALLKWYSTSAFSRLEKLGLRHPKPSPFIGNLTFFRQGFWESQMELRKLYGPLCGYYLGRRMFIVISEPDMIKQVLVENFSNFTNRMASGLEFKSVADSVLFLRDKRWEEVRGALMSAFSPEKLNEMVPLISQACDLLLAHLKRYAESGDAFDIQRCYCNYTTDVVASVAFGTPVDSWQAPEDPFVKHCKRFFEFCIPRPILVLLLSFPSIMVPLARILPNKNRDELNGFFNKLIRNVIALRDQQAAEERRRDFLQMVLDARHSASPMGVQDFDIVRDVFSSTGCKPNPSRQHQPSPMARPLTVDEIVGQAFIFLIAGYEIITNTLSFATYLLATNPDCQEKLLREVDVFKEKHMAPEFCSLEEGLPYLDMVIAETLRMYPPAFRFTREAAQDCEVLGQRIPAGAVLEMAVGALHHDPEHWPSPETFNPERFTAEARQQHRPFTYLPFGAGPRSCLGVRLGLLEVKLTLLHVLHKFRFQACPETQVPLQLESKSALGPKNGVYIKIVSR
Kind of data set: biochemical. The data set is classed as tissue-based, Platelet.

The next data set has as its target Adenosine receptor A2a (Homo sapiens, UniProt P29274). Kind of data set: DRUGMATRIX: Adenosine A2A radioligand binding (ligand: […]). The data set is classed as cell membranes, HEK293, Membrane. The following applies: Not Active = under 50% inhibition at 10 µM.
For the next data set, the target named is Cytochrome P450 2C9 (Homo sapiens, UniProt P11712). As to conditions: bti-tn-5b1-4. Further: in other assays of this panel Not Active means under 50% inhibition at 10 µM.
Chain of Cytochrome P450 2C9 (P11712 whole entry): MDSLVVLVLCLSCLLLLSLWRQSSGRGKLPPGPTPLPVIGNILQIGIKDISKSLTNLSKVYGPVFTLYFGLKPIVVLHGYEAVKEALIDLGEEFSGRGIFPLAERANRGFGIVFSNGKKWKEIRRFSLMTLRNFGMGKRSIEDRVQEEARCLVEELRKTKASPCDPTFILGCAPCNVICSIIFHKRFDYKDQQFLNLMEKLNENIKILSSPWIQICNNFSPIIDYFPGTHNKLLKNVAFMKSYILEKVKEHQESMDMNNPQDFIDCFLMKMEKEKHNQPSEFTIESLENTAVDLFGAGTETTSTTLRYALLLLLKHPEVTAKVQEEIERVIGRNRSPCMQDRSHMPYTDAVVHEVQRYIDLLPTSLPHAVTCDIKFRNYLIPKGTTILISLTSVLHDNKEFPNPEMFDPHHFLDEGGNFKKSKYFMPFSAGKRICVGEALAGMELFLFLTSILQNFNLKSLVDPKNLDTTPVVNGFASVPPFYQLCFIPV

Chain of Mitogen-activated protein kinase 14 (Q16539 whole entry): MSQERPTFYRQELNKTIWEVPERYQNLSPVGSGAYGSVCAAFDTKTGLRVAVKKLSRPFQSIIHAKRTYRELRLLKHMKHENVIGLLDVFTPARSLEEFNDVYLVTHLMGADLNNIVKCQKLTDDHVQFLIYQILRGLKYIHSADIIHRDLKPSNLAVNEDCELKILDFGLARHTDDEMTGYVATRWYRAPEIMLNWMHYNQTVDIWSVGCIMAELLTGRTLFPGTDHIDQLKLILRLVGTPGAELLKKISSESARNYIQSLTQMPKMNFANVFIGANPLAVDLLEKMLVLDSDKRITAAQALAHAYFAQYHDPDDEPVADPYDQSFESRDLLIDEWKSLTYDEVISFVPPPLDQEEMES
Chain of Adenosine receptor A2a (P29274 whole entry): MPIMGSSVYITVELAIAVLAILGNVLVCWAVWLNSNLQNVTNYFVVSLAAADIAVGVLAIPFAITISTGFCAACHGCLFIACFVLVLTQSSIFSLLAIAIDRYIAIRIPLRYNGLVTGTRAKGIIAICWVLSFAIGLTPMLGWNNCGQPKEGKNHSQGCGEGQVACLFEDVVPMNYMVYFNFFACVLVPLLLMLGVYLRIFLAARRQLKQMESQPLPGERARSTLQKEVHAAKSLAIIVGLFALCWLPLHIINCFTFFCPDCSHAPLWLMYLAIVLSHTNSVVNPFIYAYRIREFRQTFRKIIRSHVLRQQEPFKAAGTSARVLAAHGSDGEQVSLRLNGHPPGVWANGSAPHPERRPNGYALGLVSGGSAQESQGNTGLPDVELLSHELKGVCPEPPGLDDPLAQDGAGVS
Chain of Nitric oxide synthase 1 (P29476 whole entry): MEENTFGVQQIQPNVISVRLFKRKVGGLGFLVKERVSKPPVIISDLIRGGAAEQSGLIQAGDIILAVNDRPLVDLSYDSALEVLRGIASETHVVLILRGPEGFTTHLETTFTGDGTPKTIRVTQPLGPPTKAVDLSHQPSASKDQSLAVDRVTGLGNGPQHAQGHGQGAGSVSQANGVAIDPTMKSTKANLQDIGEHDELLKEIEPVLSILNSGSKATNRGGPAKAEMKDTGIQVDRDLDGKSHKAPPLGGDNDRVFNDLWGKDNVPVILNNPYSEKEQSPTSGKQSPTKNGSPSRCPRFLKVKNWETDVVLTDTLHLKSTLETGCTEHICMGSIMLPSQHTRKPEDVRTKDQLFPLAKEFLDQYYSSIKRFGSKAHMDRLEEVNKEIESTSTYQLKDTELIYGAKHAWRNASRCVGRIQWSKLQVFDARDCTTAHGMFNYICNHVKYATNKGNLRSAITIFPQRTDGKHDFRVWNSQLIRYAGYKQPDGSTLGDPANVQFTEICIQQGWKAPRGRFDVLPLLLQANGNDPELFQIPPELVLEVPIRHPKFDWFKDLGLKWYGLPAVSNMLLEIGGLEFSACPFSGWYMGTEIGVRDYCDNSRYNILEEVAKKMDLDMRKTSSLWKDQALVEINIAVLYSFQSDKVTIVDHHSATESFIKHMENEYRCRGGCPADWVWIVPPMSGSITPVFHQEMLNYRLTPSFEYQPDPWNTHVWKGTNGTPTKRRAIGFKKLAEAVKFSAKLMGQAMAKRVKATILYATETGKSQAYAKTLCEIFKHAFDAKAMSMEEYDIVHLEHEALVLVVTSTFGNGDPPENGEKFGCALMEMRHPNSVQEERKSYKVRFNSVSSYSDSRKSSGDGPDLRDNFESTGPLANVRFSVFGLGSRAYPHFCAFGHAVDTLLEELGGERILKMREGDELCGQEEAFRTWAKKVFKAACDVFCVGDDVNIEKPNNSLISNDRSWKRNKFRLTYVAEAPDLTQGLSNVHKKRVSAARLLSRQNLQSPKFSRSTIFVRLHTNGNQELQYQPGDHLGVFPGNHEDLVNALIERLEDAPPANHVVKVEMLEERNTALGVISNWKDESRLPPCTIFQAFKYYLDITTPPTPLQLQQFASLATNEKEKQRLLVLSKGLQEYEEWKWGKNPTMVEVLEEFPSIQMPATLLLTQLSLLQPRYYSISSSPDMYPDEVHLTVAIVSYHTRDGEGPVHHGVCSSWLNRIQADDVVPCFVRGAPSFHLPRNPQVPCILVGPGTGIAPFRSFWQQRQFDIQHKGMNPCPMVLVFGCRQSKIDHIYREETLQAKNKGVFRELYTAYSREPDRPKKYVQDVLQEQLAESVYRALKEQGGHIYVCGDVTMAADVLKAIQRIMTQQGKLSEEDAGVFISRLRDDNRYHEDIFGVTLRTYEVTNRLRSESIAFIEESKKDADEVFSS

Regarding `CCOc1nc2cccc(C(=O)O)c2n1Cc1ccc(-c2ccccc2-c2nnn[nH]2)cc1`, the IC50 – broadly, the concentration at which inhibition is half-maximal – in data set [1] is “Not Active”; in data set [2] (bti-tn-5b1-4), “Not Active”; against Nitric oxide synthase 1, “Not Active”; on Thromboxane-A synthase (read-out: IC50), 3.06 µM; on Adenosine receptor A2a (hek293) it was “Not Active”.

As for `O=C(O)CCCc1cccs1`, the IC50 entry (in data set [1]; in data set [2] (bti-tn-5b1-4); against Nitric oxide synthase 1; at Thromboxane-A synthase (platelet); on Adenosine receptor A2a (hek293); against Cytochrome P450 2C9) was “Not Active” throughout. Moreover, at Cytochrome P450 2C9, the Ki (in general, a dissociation constant, usually derived from enzyme kinetics or from competition with a known ligand) is on record as “Not Active”.

In the case of `COc1ccccc1N`, the IC50 entry (in data set [1]; in data set [2] (bti-tn-5b1-4); on Nitric oxide synthase 1; against Thromboxane-A synthase (platelet); at Adenosine receptor A2a (hek293); on Cytochrome P450 2C9) was “Not Active” each time. In addition, the Ki entry at Cytochrome P450 2C9 was “Not Active”.

`O=C(c1ccccc1F)N1CCC(Cc2ccccc2)CC1`: the half-inhibitory concentration (IC50) in data set [1] (read-out: IC50) was 0.537 µM; in data set [2] (bti-tn-5b1-4), “Not Active”; on Nitric oxide synthase 1, “Not Active”; against Thromboxane-A synthase (platelet) it was “Not Active”; on Adenosine receptor A2a (hek293), “Not Active”.

In the case of `Cc1c(O)cccc1C(=O)N[C@@H](CSc1ccccc1)[C@H](O)CN1C[C@H]2CCCC[C@H]2C[C@H]1C(=O)NC(C)(C)C`, the IC50 in data set [1] (read-out: IC50) is 18.2 µM; in data set [2] (bti-tn-5b1-4) it was “Not Active”; on Nitric oxide synthase 1, “Not Active”; on Thromboxane-A synthase (read-out: IC50), 21.1 µM; at Adenosine receptor A2a (hek293) it was “Not Active”; against Cytochrome P450 2C9, “Not Active”. Further, the Ki entry on Cytochrome P450 2C9 is on record as “Not Active”.

In the case of `CC(O)COC[C@H]1O[C@@H]2O[C@H]3[C@H](O)[C@@H](O)[C@@H](O[C@H]4[C@H](O)[C@@H](O)[C@@H](O[C@H]5[C@H](O)[C@@H](O)[C@@H](O[C@H]6[C@H](O)[C@@H](O)[C@@H](O[C@H]7[C@H](O)[C@@H](O)[C@@H](O[C@H]8[C@H](O)[C@@H](O)[C@@H](O[C@H]1[C@H](O)[C@H]2O)O[C@@H]8COCC(C)O)O[C@@H]7COCC(C)O)O[C@@H]6COCC(C)O)O[C@@H]5COCC(C)O)O[C@@H]4COCC(C)O)O[C@@H]3COCC(C)O` (stereo partly drawn) [2-HYDROXYPROPYL-BETA-CYCLODEXTRIN], the IC50 entry in data set [1] is “Not Active”; in data set [2] (read-out: IC50), 0.167 µM; against Nitric oxide synthase 1, “Not Active”; against Thromboxane-A synthase (platelet), “Not Active”; at Adenosine receptor A2a (hek293), “Not Active”; against Cytochrome P450 2C9, “Not Active”. Moreover, the Ki result on Cytochrome P450 2C9 is “Not Active”.

Turning to `NC(=O)c1cccc(N)c1` [3-AMINOBENZAMIDE], the 50% inhibitory concentration (IC50) entry (in data set [1]; in data set [2] (bti-tn-5b1-4); against Nitric oxide synthase 1; on Thromboxane-A synthase (platelet); at Adenosine receptor A2a (hek293); against Cytochrome P450 2C9) was “Not Active” each time. On Cytochrome P450 2C9, the inhibition constant Ki entry is on record as “Not Active”.

As for `C[C@H]1O[C@H](O[C@H]2[C@H](O)[C@@H](O)[C@@H](O[C@H]3[C@H](O)[C@@H](O)C(O)O[C@@H]3CO)O[C@@H]2CO)[C@H](O)[C@@H](O)[C@@H]1N[C@H]1C=C(CO)[C@@H](O)[C@H](O)[C@H]1O` (stereo partly specified) [ACARBOSE], the IC50 result (in data set [1]; in data set [2] (bti-tn-5b1-4); against Nitric oxide synthase 1; at Thromboxane-A synthase (platelet); at Adenosine receptor A2a (hek293); against Cytochrome P450 2C9) was “Not Active” throughout. Also, the inhibition constant (Ki) result on Cytochrome P450 2C9 is “Not Active”.

Take `CC[C@H]1[C@@H]2C[C@H]3[C@@H]4N(C)c5ccccc5[C@]45C[C@@H]([C@@H]2[C@H]5O)N3[C@@H]1O` [AJMALINE]: the IC50 result (in data set [1]; in data set [2] (bti-tn-5b1-4); at Nitric oxide synthase 1; at Thromboxane-A synthase (platelet); at Adenosine receptor A2a (hek293); against Cytochrome P450 2C9) was “Not Active” throughout. Moreover, the Ki result at Cytochrome P450 2C9 is “Not Active”.

For `NC12CC3CC(CC(C3)C1)C2` [AMANTADINE], the IC50 result (in data set [1]; in data set [2] (bti-tn-5b1-4); against Nitric oxide synthase 1; on Thromboxane-A synthase (platelet); on Adenosine receptor A2a (hek293)) was “Not Active” throughout.

Regarding `CC(C)c1c(C(=O)Nc2ccccc2)c(-c2ccccc2)c(-c2ccc(F)cc2)n1CC[C@@H](O)C[C@@H](O)CC(=O)O` [ATORVASTATIN], the IC50 entry (in data set [1]; in data set [2] (bti-tn-5b1-4); against Nitric oxide synthase 1; against Thromboxane-A synthase (platelet); on Adenosine receptor A2a (hek293)) was “Not Active” each time.

Regarding `Cn1c(=O)c2c(ncn2C)n(C)c1=O` [CAFFEINE], the IC50 result (in data set [1]; in data set [2] (bti-tn-5b1-4); against Nitric oxide synthase 1; at Thromboxane-A synthase (platelet); on Cytochrome P450 2C9) was “Not Active” each time. Further, at Cytochrome P450 2C9, the Ki result is reported as “Not Active”.

For `CC(C)C[C@H]1C(=O)N2CCC[C@H]2[C@]2(O)O[C@](NC(=O)[C@@H]3C=C4c5cccc6[nH]cc(c56)C[C@H]4N(C)C3)(C(C)C)C(=O)N12` [ERGOCRYPTINE], the half-maximal inhibitory concentration (IC50) result (in data set [1]; in data set [2] (bti-tn-5b1-4); on Nitric oxide synthase 1; against Thromboxane-A synthase (platelet); on Adenosine receptor A2a (hek293)) was “Not Active” in each case.

As to `CC(C)(C(=O)O)c1ccc(C(O)CCCN2CCC(C(O)(c3ccccc3)c3ccccc3)CC2)cc1` (stereo unspecified) [FEXOFENADINE], the IC50 result (in data set [1]; in data set [2] (bti-tn-5b1-4); at Nitric oxide synthase 1; on Thromboxane-A synthase (platelet); at Adenosine receptor A2a (hek293)) was “Not Active” throughout.

Take `CC(=O)OCC(=O)[C@@]12OC(C)(C)O[C@@H]1C[C@H]1[C@@H]3C[C@H](F)C4=CC(=O)C=C[C@]4(C)[C@@]3(F)[C@@H](O)C[C@@]12C` [FLUOCINONIDE]: the half-inhibitory concentration (IC50) result (in data set [1]; in data set [2] (bti-tn-5b1-4); against Nitric oxide synthase 1; against Thromboxane-A synthase (platelet); on Adenosine receptor A2a (hek293)) was “Not Active” each time.

With `O=c1c(-c2ccc(O)cc2)coc2cc(O)cc(O)c12` [GENISTEIN], the IC50 result in data set [1] is “Not Active”; at Nitric oxide synthase 1, “Not Active”; at Thromboxane-A synthase (read-out: IC50), 7.72 µM; at Adenosine receptor A2a (read-out: IC50), 17.4 µM; against Cytochrome P450 2C9, “Not Active”. The results for the Ki at Adenosine receptor A2a (read-out: Ki) and at Cytochrome P450 2C9 were 9.79 µM and “Not Active”, respectively.

Turning to `CCC1=C(C)CN(C(=O)NCCc2ccc(S(=O)(=O)NC(=O)N[C@H]3CC[C@H](C)CC3)cc2)C1=O` [GLIMEPIRIDE], the IC50 entry (in data set [1]; in data set [2] (bti-tn-5b1-4); against Nitric oxide synthase 1; against Thromboxane-A synthase (platelet); at Adenosine receptor A2a (hek293)) was “Not Active” throughout.

As for `N[C@@H](Cn1ccc(=O)c(O)c1)C(=O)O` [L-MIMOSINE], the IC50 result (in data set [1]; in data set [2] (bti-tn-5b1-4); at Nitric oxide synthase 1; on Thromboxane-A synthase (platelet); at Adenosine receptor A2a (hek293)) was “Not Active” each time.

In the case of `CC(C)(C)NCC(O)COc1cccc2c1CC(O)C(O)C2` (stereo unspecified) [NADOLOL], the half-maximal inhibitory concentration (IC50) result (in data set [1]; in data set [2] (bti-tn-5b1-4); against Nitric oxide synthase 1; on Thromboxane-A synthase (platelet); at Adenosine receptor A2a (hek293)) was “Not Active” in each case.

For the compound `C[C@@H]1C/C=C/C=C/C=C/C=C/[C@H](O[C@@H]2O[C@H](C)[C@@H](O)[C@H](N)[C@@H]2O)C[C@@H]2O[C@](O)(C[C@@H](O)C[C@H]3O[C@@H]3/C=C/C(=O)O1)C[C@H](O)[C@H]2C(=O)O` [NATAMYCIN], the IC50 result (in data set [1]; in data set [2] (bti-tn-5b1-4); against Nitric oxide synthase 1; against Thromboxane-A synthase (platelet); at Adenosine receptor A2a (hek293)) was “Not Active” in each case.

`COc1ccc2c(c1OC)C(=O)O[C@@H]2[C@H]1c2c(cc3c(c2OC)OCO3)CCN1C` [NOSCAPINE]: the IC50 entry (in data set [1]; in data set [2] (bti-tn-5b1-4); against Nitric oxide synthase 1; against Thromboxane-A synthase (platelet); on Adenosine receptor A2a (hek293)) was “Not Active” each time.

As to `N=C(N)c1ccc(OCCCCCOc2ccc(C(=N)N)cc2)cc1` [PENTAMIDINE], the IC50 entry is “Not Active” in data set [1]; 0.793 µM in data set [2] (read-out: IC50); “Not Active” on Nitric oxide synthase 1; “Not Active” against Thromboxane-A synthase (platelet); “Not Active” at Adenosine receptor A2a (hek293).

In the case of `NNCCc1ccccc1` [PHENELZINE], the IC50 entry (in data set [1]; on Nitric oxide synthase 1; on Thromboxane-A synthase (platelet); at Adenosine receptor A2a (hek293)) was “Not Active” in each case.
